This is an account of results in patent US6939953B2, “Leukotriene receptor” (Schering Corporation, priority 1999, dated 2005).

Test [1] deals with T1, SP9030 (human leukotriene receptor, SEQ ID NO: 2) (Homo sapiens, UniProt Q9NPC1).
T1 construct: The ORF of SP9030 was cloned in the expression vector pCR3.1 (pCR3.1-SP9030); expressed in transfected cells; host or cells: COS-7 cells (membranes)
T1 sequence (Q9NPC1 1-358): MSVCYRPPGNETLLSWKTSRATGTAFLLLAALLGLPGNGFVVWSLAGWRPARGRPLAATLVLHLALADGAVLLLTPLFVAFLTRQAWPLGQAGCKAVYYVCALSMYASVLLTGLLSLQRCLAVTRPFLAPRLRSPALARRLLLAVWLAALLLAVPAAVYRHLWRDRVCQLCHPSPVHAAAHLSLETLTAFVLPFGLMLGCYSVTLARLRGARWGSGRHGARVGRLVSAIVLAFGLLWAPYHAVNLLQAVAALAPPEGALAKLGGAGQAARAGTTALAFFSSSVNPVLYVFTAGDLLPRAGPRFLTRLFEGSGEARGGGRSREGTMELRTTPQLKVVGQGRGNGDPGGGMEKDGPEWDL
Kind of test: Radioligand competition assay using ^3H-LTB4 as the label on membranes of COS-7 cells transfected with SP9030 cDNA. It is filed as binding. As to conditions: for Affinity of the receptor for the ligand (in words): summary statement; for Ki: read-out: Ki (competition with ^3H-LTB4). On the procedure: COS-7 cells, grown in DMEM/10% FCS until 80-90% confluence, were transfected with SuperFect agent (Giagene) at 20 μg DNA/150 mm plate. Forty eight hours after transfection, medium was changed to Opti-MEM or DMEM/Opti-MEM(1:1)/5% FCS. Cells were harvested 72 hours after transfection and membranes from the cells were prepared as follows. The cells were washed with 20 ml PBS without Ca^2+/Mg^2+ and incubated with 10 ml […] Hepes pH 7.4, 0.5 mM PMSF, 20 μg/ml aprotinin. The cells were scraped off the plate and vortexed. The cell suspension was then centrifuged at 13,000 g at 4° C. for 15 min. The pellets were re-suspended in 1.8 ml 50 mM Tris-Cl, pH 7.5 and vortexed. The membranes were homogenized with a 23-gauge needle. The protein concentration of the membrane preparations was determined with the BCA agents (Pierce).
Radioligand binding assays were performed to test the ability of SP9030, when expressed in cultured cells, to bind ^3H-labeled leukotriene. The ORF of SP9030 was cloned in the expression vector pCR3.1 (pCR3.1-SP9030). COS-7 cells were transfected with pCR3.1-SP9030 or pCR3.1 alone (mock transfection). Two days after transfection, the normal growth medium DMEM/10% FCS was replaced by either Opti-MEM or DMEM-Opti-MEM/5% FCS. The cells were allowed to grow one more day and then membranes were prepared for use in binding assay.
The reactions were incubated for 1 hour at 4° C. while rotated slowly. Multiscreen FB filters (Millipore) pre-soaked with 50 μl binding assay buffer for 1 hour at room temperature were used to filter the binding assays and the filters were washed twice with 100 μl 50 mM TrisCl, pH 7.5 (ice cold). Fifty microliters of scintillation fluid was added to the filters and counted to detect the bound radioligands. For radioligand competition assays, 160 μl binding assay buffer containing appropriate membranes were mixed with 20 μl of binding assay buffer containing 6% DMSO (v/v) and various concentrations of competing compounds. […] The final concentration of radioligand was 0.25 nM. Incubation conditions were the same as that used for the above described saturation assays.
COS-7 cells transfected with SP9030 cDNA were harvested three days after transfection and membrane prepared from cells used for binding assays.

For test [2], the target named is T2, SP9030 expressed in 293-EBNA cells (Homo sapiens, UniProt Q9NPC1).
T2 construct: expressed in transfected cells; host or cells: 293-EBNA cells
T2 sequence (Q9NPC1 1-358): T1 sequence (Q9NPC1 1-358)
The experiment in a line: Intracellular Ca2+ flux measurement (FLIPR) in 293-EBNA cells expressing SP9030. Format: cell-based. As to conditions: 293-EBNA cells transfected with SP9030, Fluo-3, FLIPR. Here is the method: (§1) 293-EBNA cells, grown in DMEM containing 10% FCS until 80-90% confluence, were transfected with SuperFect transfection agent. The next day, cells were trypsinized off culture plates and washed with PBS lacking Ca^2+/Mg^2+. The cells were then seeded at a density of 35,000 cells per 100 μl medium) into 96-well plates that were pre-coated with poly-D-lysine (Becton Dickinson). The third day following transfection, medium was removed from cells and 100 μl Hank's balanced salt solution (lacking phenol red) containing 4 μM of Fluo-3, AM (Molecular Probes), 20 mM Hepes, pH 7.4, 0.1% (w/v) BSA and […] added and subsequently incubated at 37° C., 5% CO2 for 1 hour. The cells were then washed three times with 150 μl wash buffer containing HANK's BSS, 40 mM Hepes, pH 7.4 and […]. One hundred μl of the wash buffer was added after the final wash and Ca^2+ flux was measured after addition of 40 μl of wash buffer containing appropriate concentration of ligands. The FLIPR instrument (Molecular Device) was used in the measurement of Ca^2+ flux.
(§2) Intracellular function that the SP9030 receptor may mediate through activation by its ligand was examined in measurements of intracellular Ca^2+ flux.
On the technique in general: Calcium flux is commonly read through the fluorescence of an indicator in the cells.

For test [3], the system named is 293-EBNA cells mock transfected without SP9030 cDNA. Kind of test: Intracellular Ca2+ flux measurement (FLIPR) in mock transfected 293-EBNA cells. Format: cell-based. Here is the method:
as §1, §2

Structures are written as SMILES. Where two headings read alike, the source gives them in different places.

For the compound `CCCCC[C@H](O)/C=C/C=C\C/C=C\C/C=C\CCCC(=O)O` [15(5)-OH-5z, 8z, 11z, 13e)-eicosatetraenoic acid], the “Affinity of the receptor for the ligand (in words)” value (from here on “Affinity of the receptor”) in test [1] was “high affinity”.

Consider `CCCCC/C=C\C[C@@H](O)/C=C/C=C/C=C\[C@@H](O)CCCC(=O)O` [LTB4, leukotriene B4], for which the “Affinity of the receptor” value in test [1] is on record as “high affinity”. Further, the “Cellular Ca2+ release” value in test [2] is on record as “activated cellular Ca^2+ release”. Moreover, in test [3], the “Ca2+ response to incubation with ligand” value was “did not respond”.

In general, Ki refers to a measure of affinity in units of concentration, obtained from inhibition or displacement. As to `CC/C=C\C/C=C\C[C@@H](O)/C=C/C=C/C=C\[C@@H](O)CCCC(=O)O` [LTB5, leukotriene B5], the Ki in test [1] (0.25 nM ^3H-LTB4, Ki=EC50/(1+[^3H-LTB4]/Kd), Kd […]) was 8.6 ± 5.3 nM. Moreover, in test [1], the “Affinity of the receptor” value was “high affinity”.

Turning to `CCCCC[C@H](O)/C=C/C=C\C=C\C=C\[C@@H](O)[C@@H](O)CCCC(=O)O` [lipoxin A4], in test [1], the Ki amounted to 112 ± 40 nM and the “Affinity of the receptor” value is recorded as “high affinity”.
